From patent publication US20210070748A1, “INHIBITORS OF BRUTONS TYROSINE KINASE” (Pharmacyclics LLC, priority 2015, published 2021) come the findings set out here.

For one assay, the target named is T1, BTK-WT (Homo sapiens, UniProt Q06187).
T1 construct: purified from insect cells as a full-length construct containing an N-terminal 6X-His tag; His6 (N); made in house; host or cells: insect cells (baculovirus Sf21 in Method B)
Kind of assay: Btk in vitro inhibitory activity (one of Method A TR-FRET, Method B electrophoretic mobility shift, Method C radiometric filter binding). The assay is classed as biochemical. The settings on record: D-compounds panel data; read-out: IC50 BTK-WT. On the technique in general: In EMSA bound probe runs differently from free probe, usually more slowly.

The target in the next assay is T2, TEC (Homo sapiens, UniProt P42680).
T2 sequence (P42680 1-631): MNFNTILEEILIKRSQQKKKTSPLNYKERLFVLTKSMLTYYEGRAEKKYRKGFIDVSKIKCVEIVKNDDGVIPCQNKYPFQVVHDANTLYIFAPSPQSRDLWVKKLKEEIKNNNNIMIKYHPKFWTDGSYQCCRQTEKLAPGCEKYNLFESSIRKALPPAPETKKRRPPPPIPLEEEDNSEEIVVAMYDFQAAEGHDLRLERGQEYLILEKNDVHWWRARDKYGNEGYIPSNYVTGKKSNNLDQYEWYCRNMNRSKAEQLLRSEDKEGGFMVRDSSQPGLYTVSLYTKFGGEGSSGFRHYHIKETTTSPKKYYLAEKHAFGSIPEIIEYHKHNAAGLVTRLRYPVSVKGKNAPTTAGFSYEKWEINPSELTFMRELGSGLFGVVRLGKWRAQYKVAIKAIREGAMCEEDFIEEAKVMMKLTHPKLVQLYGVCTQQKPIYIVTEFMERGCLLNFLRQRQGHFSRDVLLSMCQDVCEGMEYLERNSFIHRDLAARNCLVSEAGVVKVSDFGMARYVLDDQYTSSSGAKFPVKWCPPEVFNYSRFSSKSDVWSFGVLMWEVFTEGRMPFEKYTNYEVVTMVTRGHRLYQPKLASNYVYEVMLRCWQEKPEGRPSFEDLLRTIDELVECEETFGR
As to the kind of experiment: Inhibition of a panel of kinases, in vitro HotSpot kinase assay: TEC. The assay is classed as biochemical. The note with it: D-compounds panel data; 1 μM ATP. How it is done: The degree of inhibition of a panel of kinases is determined using the in vitro HotSpot kinase assay (purified enzymes, ^33P-ATP, an appropriate substrate and 1 μM ATP).

T1 sequence (Q06187 whole entry): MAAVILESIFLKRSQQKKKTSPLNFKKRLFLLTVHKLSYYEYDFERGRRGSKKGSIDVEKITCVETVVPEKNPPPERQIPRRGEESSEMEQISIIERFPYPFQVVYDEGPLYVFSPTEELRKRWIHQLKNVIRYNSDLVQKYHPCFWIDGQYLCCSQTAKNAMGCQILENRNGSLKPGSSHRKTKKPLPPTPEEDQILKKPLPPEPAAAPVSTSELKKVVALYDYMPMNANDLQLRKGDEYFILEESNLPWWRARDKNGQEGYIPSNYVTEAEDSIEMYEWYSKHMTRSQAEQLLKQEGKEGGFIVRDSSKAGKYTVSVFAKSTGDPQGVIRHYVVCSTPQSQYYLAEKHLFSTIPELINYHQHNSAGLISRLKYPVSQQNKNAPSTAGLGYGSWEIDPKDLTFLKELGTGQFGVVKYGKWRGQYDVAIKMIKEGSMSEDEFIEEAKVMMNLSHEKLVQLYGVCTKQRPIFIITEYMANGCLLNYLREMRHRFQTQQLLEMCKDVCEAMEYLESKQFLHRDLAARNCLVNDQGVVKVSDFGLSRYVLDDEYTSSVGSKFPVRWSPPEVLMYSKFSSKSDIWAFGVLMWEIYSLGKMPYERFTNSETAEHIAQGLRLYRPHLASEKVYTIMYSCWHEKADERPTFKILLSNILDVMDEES

As a reminder, the IC50 is the concentration at which inhibition is half-maximal. `CC(=O)N1CCC(n2cc(Nc3nc(N4CCC[C@@H](NC(=O)c5ccc(C6CC6)cc5)[C@H]4C)cnc3C(N)=O)cn2)CC1` [Example D-283, 3-{[1-(1-acetylpiperidin-4-yl)-1H-pyrazol-4-yl]amino}-5-[(2R,3R)-3-(4-cyclopropylbenzamido)-2-methylpiperidin-1-yl]pyrazine-2-carboxamide]: the IC50 at BTK-WT and against TEC was ≤ 10 nM in each case.
As for `C[C@@H]1[C@H](NC(=O)c2ccc3c(c2)CCC(C)(C)O3)CCCN1c1cnc(C(N)=O)c(Nc2cnn(C)c2)n1` [Example D-258, 5-[(2R,3R)-3-(2,2-dimethyl-3,4-dihydro-2H-1-benzopyran-6-amido)-2-methylpiperidin-1-yl]-3-[(1-methyl-1H-pyrazol-4-yl)amino]pyrazine-2-carboxamide], the IC50 on BTK-WT and against TEC was ≤ 10 nM throughout.
As to `CC(C)n1nnc2cc(C(=O)N[C@@H]3CCCN(c4cnc(C(N)=O)c(Nc5cnn(C)c5)n4)[C@@H]3C)ccc21` [Example D-255, N-[(2R,3R)-1-{5-carbamoyl-6-[(1-methyl-i H-pyrazol-4-yl)amino]pyrazin-2-yl}-2-methylpiperidin-3-yl]-1-(propan-2-yl)-1H-1,2,3-benzotriazole-5-carboxamide], the IC50 on BTK-WT and on TEC was ≤ 10 nM each time.
Regarding `C[C@@H]1[C@H](NC(=O)c2ccc3ncsc3c2)CCCN1c1cnc(C(N)=O)c(Nc2cnn(C)c2)n1` [Example D-243, N-[(2R,3R)-1-{5-carbamoyl-6-[(1-methyl-1H-pyrazol-4-yl)amino]pyrazin-2-yl}-2-methylpiperidin-3-yl]-1,3-benzothiazole-6-carboxamide], the IC50 at BTK-WT and against TEC was ≤ 10 nM throughout.
For `C[C@@H]1[C@H](NC(=O)c2ccc(C3CC3)nc2)CCCN1c1cnc(C(N)=O)c(Nc2ccc(OC3CCN(C)CC3)cc2)n1` [Example D-294, 5-[(2R,3R)-3-(6-cyclopropylpyridine-3-amido)-2-methylpiperidin-1-yl]-3-({4-[(1-methylpiperidin-4-yl)oxy]phenyl}amino)pyrazine-2-carboxamide], the IC50 at BTK-WT and against TEC was ≤ 10 nM in each case.
Take `C[C@@H]1[C@H](NC(=O)c2ccc3nccn3c2)CCCN1c1cnc(C(N)=O)c(Nc2cnn(C)c2)n1` [Example D-266, 5-[(2R,3R)-3-(imidazo[1,2-a]pyridine-6-amido)-2-methylpiperidin-1-yl]-3-[(1-methyl-1H-pyrazol-4-yl)amino]pyrazine-2-carboxamide]: the IC50 at BTK-WT and on TEC was ≤ 10 nM each time.
Consider `C[C@@H]1[C@H](NC(=O)c2ccc(C3CC3)cc2F)CCCN1c1cnc(C(N)=O)c(Nc2ccc(N3CCNCC3)c(F)c2)n1` [Example D-313, 5-[(2R,3R)-3-(4-cyclopropyl-2-fluorobenzamido)-2-methylpiperidin-1-yl]-3-{[3-fluoro-4-(piperazin-1-yl)phenyl]amino}pyrazine-2-carboxamide], for which the half-inhibitory concentration (IC50) on BTK-WT and against TEC was ≤ 10 nM throughout.
`C[C@@H]1[C@H](NC(=O)c2ccc(C3CC3)cc2)CCCN1c1cnc(C(N)=O)c(Nc2cnn(C3CCOCC3)c2)n1` [Example D-274, 5-[(2R,3R)-3-(4-cyclopropylbenzamido)-2-methylpiperidin-1-yl]-3-{[1-(oxan-4-yl)-1H-pyrazol-4-yl]amino}pyrazine-2-carboxamide]: the IC50 at BTK-WT and on TEC was ≤ 10 nM in each case.
With `Cc1nc2cc(C(=O)N[C@@H]3CCCN(c4cnc(C(N)=O)c(Nc5cnn(C)c5)n4)[C@@H]3C)ccc2[nH]1` [Example D-261, N-[(2R,3R)-1-{5-carbamoyl-6-[(1-methyl-1H-pyrazol-4-yl)amino]pyrazin-2-yl}-2-methylpiperidin-3-yl]-2-methyl-1H-1,3-benzodiazole-5-carboxamide], the half-maximal inhibitory concentration (IC50) on BTK-WT and on TEC was ≤ 10 nM throughout.
Regarding `C[C@@H]1[C@H](NC(=O)c2ccc(C(C)(C)C)cc2)CCCN1c1cnc(C(N)=O)c(Nc2ccc(OC3CCN(C)CC3)cc2)n1` [Example D-291, 5-[(2R,3R)-3-(4-tert-butylbenzamido)-2-methylpiperidin-1-yl]-3-({4-[(1-methylpiperidin-4-yl)oxy]phenyl}amino)pyrazine-2-carboxamide], the values for the IC50 on BTK-WT and against TEC were ≤ 10 nM and 10 to 100 nM, respectively.
The like results for `C[C@@H]1[C@H](NC(=O)c2ccc(C(C)(C)F)cc2)CCCN1c1cnc(C(N)=O)c(Nc2cnn(C)c2)n1` [Example D-251, 5-[(2R,3R)-3-[4-(2-fluoropropan-2-yl)benzamido]-2-methylpiperidin-1-yl]-3-[(1-methyl-1H-pyrazol-4-yl)amino]pyrazine-2-carboxamide] were, in that order, ≤ 10 nM and ≤ 10 nM.
The like results for `C[C@@H]1[C@H](NC(=O)c2cc3c(n2C)CC(C)(C)C3)CCCN1c1cnc(C(N)=O)c(Nc2cnn(C)c2)n1` [Example D-19, 3-[(1-methyl-1H-pyrazol-4-yl)amino]-5-[(2R,3R)-2-methyl-3-{1,5,5-trimethyl-1H,4H,5H,6H-cyclopenta[b]pyrrole-2-amido}piperidin-1-yl]pyrazine-2-carboxamide] were, in that order, ≤ 10 nM and 10 to 100 nM.
With `C[C@@H]1[C@H](NC(=O)c2ccc(C3CC3)cc2)CCCN1c1cnc(C(N)=O)c(Nc2cnn(C)c2C(F)(F)F)n1` [Example D-276, 5-[(2R,3R)-3-(4-cyclopropylbenzamido)-2-methylpiperidin-1-yl]-3-{[1-methyl-5-(trifluoromethyl)-1H-pyrazol-4-yl]amino}pyrazine-2-carboxamide], the half-inhibitory concentration (IC50) at BTK-WT is 1000 to 10000 nM; on TEC it was > 10000 nM.
Regarding `C[C@@H]1[C@H](NC(=O)c2ccc(C(C)(C)O)cc2)CCCN1c1nnc(C(N)=O)c(Nc2cnn(C)c2)n1` [Example D-298, 3-[(2R,3R)-3-[4-(2-hydroxypropan-2-yl)benzamido]-2-methylpiperidin-1-yl]-5-[(1-methyl-1H-pyrazol-4-yl)amino]-1,2,4-triazine-6-carboxamide], the IC50 on BTK-WT and at TEC was ≤ 10 nM throughout.
With `C[C@@H]1[C@H](NC(=O)c2ccc(C3CC3)cc2)CCCN1c1cnc(C(N)=O)c(Nc2ccc3c(c2)CCOC3)n1` [Example D-303, 5-[(2R,3R)-3-(4-cyclopropylbenzamido)-2-methylpiperidin-1-yl]-3-[(3,4-dihydro-1H-2-benzopyran-6-yl)amino]pyrazine-2-carboxamide], the IC50 on BTK-WT and against TEC was 10 to 100 nM each time.
As for `Cc1nn(C)cc1Nc1nc(N2CCC[C@@H](NC(=O)c3ccc(C4CC4)cc3)[C@H]2C)cnc1C(N)=O` [Example D-272, 5-[(2R,3R)-3-(4-cyclopropylbenzamido)-2-methylpiperidin-1-yl]-3-[(1,3-dimethyl-1H-pyrazol-4-yl)amino]pyrazine-2-carboxamide], the IC50 at BTK-WT lay within 10 to 100 nM; against TEC it was 1000 to 10000 nM.
Take `C[C@@H]1[C@H](NC(=O)c2cc(C3CC3)n[nH]2)CCCN1c1cnc(C(N)=O)c(Nc2cnn(C)c2)n1` [Example D-252, 5-[(2R,3R)-3-(3-cyclopropyl-1H-pyrazole-5-amido)-2-methylpiperidin-1-yl]-3-[(1-methyl-1H-pyrazol-4-yl)amino]pyrazine-2-carboxamide]: the IC50 on BTK-WT and at TEC was ≤ 10 nM in each case.
Regarding `C[C@@H]1[C@H](NC(=O)c2ccc(C3CC3)cc2)CCCN1c1nnc(C(N)=O)c(Nc2cnn(C)c2)n1` [Example D-277, 3-[(2R,3R)-3-(4-cyclopropylbenzamido)-2-methylpiperidin-1-yl]-5-[(1-methyl-1H-pyrazol-4-yl)amino]-1,2,4-triazine-6-carboxamide], the concentration for half-maximal inhibition (IC50) at BTK-WT and against TEC was ≤ 10 nM throughout.
Consider `C[C@@H]1[C@H](NC(=O)c2ccc(C3CC3)cc2)CCCN1c1cnc(C(N)=O)c(Nc2cnn(C3CCC(F)(F)CC3)c2)n1` [Example D-307, 5-[(2R,3R)-3-(4-cyclopropylbenzamido)-2-methylpiperidin-1-yl]-3-{[1-(4,4-difluorocyclohexyl)-1H-pyrazol-4-yl]amino}pyrazine-2-carboxamide], for which the IC50 at BTK-WT is ≤ 10 nM; against TEC, 10 to 100 nM.
With `C[C@@H]1[C@H](NC(=O)c2ccc(C3CC3)cc2)CCCN1c1cnc(C(N)=O)c(Nc2cnn(C3CCN(CC(F)(F)F)CC3)c2)n1` [Example D-293, 5-[(2R,3R)-3-(4-cyclopropylbenzamido)-2-methylpiperidin-1-yl]-3-({1-[1-(2,2,2-trifluoroethyl)piperidin-4-yl]-1H-pyrazol-4-yl}amino)pyrazine-2-carboxamide], the values for the half-inhibitory concentration (IC50) at BTK-WT and at TEC were ≤ 10 nM and 10 to 100 nM, respectively.
The like results for `CCOCCOc1ccc(Nc2nc(N3CCC[C@@H](NC(=O)c4ccc(C5CC5)cc4)[C@H]3C)cnc2C(N)=O)cc1` [Example D-299, 5-[(2R,3R)-3-(4-cyclopropylbenzamido)-2-methylpiperidin-1-yl]-3-{[4-(2-ethoxyethoxy)phenyl]amino}pyrazine-2-carboxamide] were, in that order, 10 to 100 nM and 10 to 100 nM.
